Assay results published in a compilation of properties of binary mixtures (doi:10.1016/j.molliq.2022.120193).

Assay: xn = mol fraction of the nth substance listed
Conditions: 100 kPa

CC[N+](C)(CC)CCOC.F[B-](F)(F)F + CCCC[n+]1ccn(C)c1C.F[B-](F)(F)F
electrical conductivity [S/m]
Conditions	x1 = 0.1	x1 = 0.2	x1 = 0.3	x1 = 0.4	x1 = 0.5	x1 = 0.6	x1 = 0.7	x1 = 0.8	x1 = 0.9	x1 = 1
313.15 K	0.231	0.244	0.282	–	0.29	0.296	–	0.321	0.348	0.343
318.15 K	0.305	–	0.354	–	–	0.38	0.392	–	0.445	–
323.15 K	0.392	0.404	0.437	0.445	0.465	0.472	0.498	0.519	–	0.553
328.15 K	–	–	0.534	0.541	–	0.579	0.614	0.639	–	0.68
333.15 K	0.604	0.613	0.643	0.67	–	0.72	0.766	0.782	0.822	0.829
338.15 K	0.727	0.736	0.758	–	0.79	0.828	0.884	0.939	0.995	1
343.15 K	0.861	0.871	0.9	–	0.936	0.978	1.03	1.09	–	1.18
348.15 K	1.02	1.03	1.05	1.07	1.09	–	1.2	1.27	1.37	1.39
353.15 K	1.16	–	–	–	–	1.32	–	1.42	1.59	–
358.15 K	1.31	1.35	–	–	1.46	1.51	1.56	–	1.82	1.86
363.15 K	1.5	1.53	1.58	1.62	–	1.73	1.77	1.82	2.01	–

CCCCn1cc[n+](C)c1C.O=S(=O)([N-]S(=O)(=O)C(F)(F)F)C(F)(F)F + CCCC[n+]1ccn(C)c1C.F[B-](F)(F)F
electrical conductivity [S/m]
Conditions	x1 = 0.1	x1 = 0.2	x1 = 0.3	x1 = 0.4	x1 = 0.5	x1 = 0.6	x1 = 0.7	x1 = 0.8	x1 = 0.9	x1 = 1
313.15 K	0.231	0.249	0.265	0.305	–	0.32	0.35	0.403	0.476	0.465
318.15 K	0.301	0.32	–	0.378	–	0.394	0.432	–	0.572	0.566
323.15 K	0.381	–	–	–	0.476	0.482	0.521	0.59	0.683	0.665
328.15 K	0.474	0.49	0.508	0.54	0.572	0.581	0.617	0.698	0.812	0.777
333.15 K	0.587	0.6	0.617	0.645	0.68	–	0.709	0.816	0.94	0.901
338.15 K	0.707	0.715	–	–	0.796	–	0.839	0.949	1.08	1.04
343.15 K	0.844	0.848	0.859	0.894	0.931	0.952	0.963	1.08	1.23	1.18
348.15 K	0.997	0.995	1.01	–	1.07	1.08	1.09	–	–	1.37
353.15 K	1.16	1.15	1.16	1.18	1.23	1.23	1.24	–	1.56	1.54
358.15 K	–	1.31	1.32	1.34	–	1.4	–	–	1.74	–
363.15 K	1.5	–	1.5	1.51	–	1.57	1.59	1.64	1.91	1.87

CCCC[n+]1ccn(C)c1C.F[B-](F)(F)F + CC[N+](C)(CC)CCOC.F[B-](F)(F)F
x2 = 0
Conditions	electrical conductivity [S/m]
318.15 K	0.153
323.15 K	0.202
328.15 K	0.26
353.15 K	0.749
358.15 K	0.867
363.15 K	0.995

CC[N+](C)(CC)CCOC.O=S(=O)([N-]S(=O)(=O)C(F)(F)F)C(F)(F)F + CC[N+](C)(CC)CCOC.F[B-](F)(F)F
x1 = 1
Conditions	electrical conductivity [S/m]
293.15 K	0.237
303.15 K	0.382
308.15 K	0.476
313.15 K	0.572
318.15 K	0.683
323.15 K	0.794
328.15 K	0.922
333.15 K	1.06
338.15 K	1.2
343.15 K	1.32

CC[N+](C)(CC)CCOC.F[B-](F)(F)F + CC[N+](C)(CC)CCOC.O=S(=O)([N-]S(=O)(=O)C(F)(F)F)C(F)(F)F
electrical conductivity [S/m]
Conditions	x2 = 0	x2 = 0.1	x2 = 0.2	x2 = 0.3	x2 = 0.4	x2 = 0.5	x2 = 0.6	x2 = 0.7	x2 = 0.8	x2 = 0.9
293.15 K	0.096	–	0.133	0.14	0.149	0.161	0.175	0.168	0.184	0.198
298.15 K	0.136	0.161	0.174	–	0.202	0.214	0.234	–	0.251	–
303.15 K	0.19	0.218	0.233	0.25	0.264	0.277	0.304	0.298	0.324	–
308.15 K	0.255	0.292	0.305	–	0.338	–	–	0.381	0.407	0.423
313.15 K	0.343	0.381	–	–	0.425	0.444	0.47	0.472	–	0.509
318.15 K	0.437	0.483	0.485	0.506	–	0.541	0.569	–	0.599	0.625
323.15 K	0.553	0.596	–	–	0.636	0.652	0.684	0.687	0.709	0.731
328.15 K	0.68	0.737	–	0.734	0.763	0.779	–	0.804	0.833	0.863
333.15 K	0.829	–	0.858	0.873	0.897	–	0.934	–	0.964	0.993
338.15 K	1	1.06	1.02	1.02	1.04	1.06	1.08	–	1.11	1.13
343.15 K	1.18	1.24	–	–	1.2	1.22	1.24	1.23	–	1.29

CCCCn1cc[n+](C)c1C.O=S(=O)([N-]S(=O)(=O)C(F)(F)F)C(F)(F)F + CC[N+](C)(CC)CCOC.O=S(=O)([N-]S(=O)(=O)C(F)(F)F)C(F)(F)F
electrical conductivity [S/m]
Conditions	x2 = 0	x2 = 0.1	x2 = 0.2	x2 = 0.3	x2 = 0.4	x2 = 0.5	x2 = 0.6	x2 = 0.7	x2 = 0.8	x2 = 0.9
293.15 K	–	0.191	–	0.195	0.201	–	0.206	0.211	0.21	0.21
298.15 K	–	0.253	–	0.259	0.263	0.264	0.268	0.275	0.28	0.28
303.15 K	0.302	0.323	0.326	0.325	0.336	0.337	0.345	0.355	0.351	0.351
308.15 K	–	0.402	0.403	0.407	0.414	0.423	0.426	0.432	0.434	0.434
313.15 K	0.465	0.498	0.497	0.499	0.509	–	0.515	–	0.56	0.56
318.15 K	0.566	0.589	–	0.601	0.611	0.616	0.62	0.638	–	0.648
323.15 K	–	0.705	0.71	0.722	0.726	0.735	0.742	–	0.763	0.763
328.15 K	–	–	0.825	–	–	0.865	0.87	0.876	0.902	–
333.15 K	0.901	0.965	0.962	0.969	0.973	0.991	–	1.01	1.02	1.02
338.15 K	1.04	1.1	–	1.12	1.12	1.13	1.13	1.16	1.17	1.17
343.15 K	1.18	–	–	1.27	1.27	1.28	1.29	1.32	–	1.33

CCCC[n+]1ccn(C)c1C.F[B-](F)(F)F + FC(S(=O)(=O)[N-]S(=O)(=O)C(F)(F)F)(F)F.C(CCC)N1C(=[N+](C=C1)C)C
x2 = 0
Conditions	electrical conductivity [S/m]
318.15 K	0.153
333.15 K	0.335
343.15 K	0.531
348.15 K	0.63
353.15 K	0.749
358.15 K	0.867
363.15 K	0.995

CC[N+](C)(CC)CCOC.O=S(=O)([N-]S(=O)(=O)C(F)(F)F)C(F)(F)F + FC(S(=O)(=O)[N-]S(=O)(=O)C(F)(F)F)(F)F.C(CCC)N1C(=[N+](C=C1)C)C
x1 = 1
Conditions	electrical conductivity [S/m]
293.15 K	0.237
298.15 K	0.311
303.15 K	0.382
308.15 K	0.476
313.15 K	0.572
318.15 K	0.683
323.15 K	0.794
328.15 K	0.922
333.15 K	1.06
338.15 K	1.2
343.15 K	1.32
